One test addresses T1, AmpC (Pseudomonas aeruginosa, UniProt P24735).
T1 construct: AmpC, TEM-1, KPC-2 or OXA-2 domain excluding signal peptide was amplified with PCR; made in house; host or cells: Escherichia coli BL21 (DE3), pET-28b(+)
Nature of the test: biochemical.

The target in a further test is T2, TEM-1 (Escherichia coli, UniProt P62593).
T2 construct: AmpC, TEM-1, KPC-2 or OXA-2 domain excluding signal peptide was amplified with PCR; made in house; host or cells: Escherichia coli BL21 (DE3), pET-28b(+)
T2 sequence (P62593 24-286 limits assumed): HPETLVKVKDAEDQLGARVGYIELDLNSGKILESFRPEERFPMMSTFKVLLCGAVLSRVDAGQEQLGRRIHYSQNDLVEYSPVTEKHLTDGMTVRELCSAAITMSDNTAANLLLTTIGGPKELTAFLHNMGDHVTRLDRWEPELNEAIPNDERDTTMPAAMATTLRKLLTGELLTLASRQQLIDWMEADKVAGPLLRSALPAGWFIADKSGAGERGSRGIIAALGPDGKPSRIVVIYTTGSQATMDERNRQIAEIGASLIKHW
Nature of the test: β-Lactamase inhibitory activity (nitrocefin hydrolysis), TEM-1. The class given is biochemical. To be noted: TEM-1 0.1 nM, 100 μM nitrocefin, pre-incubation 30° C. 10 minutes. Here is the method: Using Pseudomonas aeruginosa ATCCBAA-47 genome, plasmid pBR322, Klebsiella pneumoniae ATCCBAA-1705, and P. aeruginosa MSC17696 as a template, each DNA for encoding β-lactamase, AmpC, TEM-1, KPC-2 or OXA-2 domain excluding signal peptide was amplified with PCR. Each of the PCR product was incorporated into pET-28b(+)vector (Merck), introduced into Escherichia coli BL21 (DE3) (Merck), and, under induction of 1 mM isopropyl-β-D-(−)-thiogalactopyranoside (Nacalai Tesque), cultured overnight at 20° C. to express AmpC, TEM-1, KPC-2, and OXA-2. After the bacterial cell was collected, AmpC was purified from the cell extract obtained by ultrasonic treatment, using CM Sepharose Fast Flow (GE Healthcare) and HiTrap Heparin HP (GE Healthcare) at 4° C. TEM-1 was purified with HiTrap SPHP (GE Healthcare), HiTrap Q (GE Healthcare) and Mono Q (GE Healthcare), and KPC-2 was purified with HiTrap SPHP. OXA-2 was purified with HiTrap SPHP and HiTrap Heparin HP.
For the measurement of β-lactamase inhibitory activity, 100 μM (final concentration) nitrocefin (Oxoid) was used as a substrate, and 2.5% DMSO, 10 μg/mL bovine serum derived albumin (Sigma-Aldrich) and 50 mM phosphate buffer at pH 7.0 were used as a reaction solution. […] Nitrocefin was added to each well to be mixed therein, followed by incubation at 30° C. for 20 minutes, and Multiscan Ascent (Thermo Fisher Scientific) was used to measure 492 nm wavelength, thereby measuring nitrocefin hydrolytic activity of β-Lactamase, to determine enzyme inhibitory activity. […] As the inhibitory activity strength, less than 0.1 μM, less than 1 μM, less than 3 μM, less than 10 μM, and 10 μM or more were shown with A, B, C, D, and E respectively.

A further test deals with T3, KPC-2 (Klebsiella pneumoniae, UniProt Q9F663).
T3 construct: AmpC, TEM-1, KPC-2 or OXA-2 domain excluding signal peptide was amplified with PCR; made in house; host or cells: Escherichia coli BL21 (DE3), pET-28b(+)
T3 sequence (Q9F663 25-293, looked up): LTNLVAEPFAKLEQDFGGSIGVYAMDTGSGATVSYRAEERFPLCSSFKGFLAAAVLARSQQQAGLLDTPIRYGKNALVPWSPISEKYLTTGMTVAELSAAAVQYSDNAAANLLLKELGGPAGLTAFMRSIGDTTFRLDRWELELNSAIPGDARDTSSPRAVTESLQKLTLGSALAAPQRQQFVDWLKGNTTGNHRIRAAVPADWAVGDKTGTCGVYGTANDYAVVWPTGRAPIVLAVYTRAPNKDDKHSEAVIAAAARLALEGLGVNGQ
The test is described as follows: β-Lactamase inhibitory activity (nitrocefin hydrolysis), KPC-2. Particulars: KPC-2 0.5 nM, 100 μM nitrocefin, pre-incubation 30° C. 10 minutes. In kind it is biochemical.

A further test addresses T4, OXA-2 (Escherichia coli, UniProt P0A1V9).
T4 construct: AmpC, TEM-1, KPC-2 or OXA-2 domain excluding signal peptide was amplified with PCR; made in house; host or cells: Escherichia coli BL21 (DE3), pET-28b(+)
The test is described as follows: biochemical. Further details: species or system P. aeruginosa.

Where [1] appears, read: OXA-2 2 nM, 100 μM nitrocefin, pre-incubation 30° C. 10 minutes, read-out: β-Lactamase inhibitory activity OXA-2 (IC50).

The record followed here is patent US10556905B2, “Processes for preparing a diazabicyclooctane compound” (priority 2012, dated 2020).

Molecules are shown by their SMILES. Read-outs that look alike come from different tables or passages of the source. Some results are limits rather than exact numbers.

T1 sequence (P24735 27-397): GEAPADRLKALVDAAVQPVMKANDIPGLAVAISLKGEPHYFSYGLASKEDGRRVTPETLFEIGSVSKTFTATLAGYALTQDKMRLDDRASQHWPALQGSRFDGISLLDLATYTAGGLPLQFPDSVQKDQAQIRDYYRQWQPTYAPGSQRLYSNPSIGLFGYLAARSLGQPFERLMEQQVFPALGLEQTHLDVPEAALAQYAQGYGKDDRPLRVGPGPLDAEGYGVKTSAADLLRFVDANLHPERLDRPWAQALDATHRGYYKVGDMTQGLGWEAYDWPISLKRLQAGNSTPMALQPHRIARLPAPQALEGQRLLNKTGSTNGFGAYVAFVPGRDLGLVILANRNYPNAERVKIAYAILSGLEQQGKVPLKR
T4 sequence (P0A1V9 22-275): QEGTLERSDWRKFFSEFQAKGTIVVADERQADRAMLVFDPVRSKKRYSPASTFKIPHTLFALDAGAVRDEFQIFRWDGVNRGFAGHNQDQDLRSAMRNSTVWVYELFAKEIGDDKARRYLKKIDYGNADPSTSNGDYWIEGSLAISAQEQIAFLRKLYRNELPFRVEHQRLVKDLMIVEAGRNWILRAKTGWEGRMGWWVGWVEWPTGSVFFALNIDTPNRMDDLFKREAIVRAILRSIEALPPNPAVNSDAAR

As a reminder, the IC50 is the point on the concentration scale where inhibition reaches its midpoint. As for `CN(C)C(=O)NNC(=O)[C@@H]1CC[C@@H]2CN1C(=O)N2OS(=O)(=O)O` [Example 47, Sodium N,N-dimethyl2-{[(2S,5R)-7-oxo-6-(sulfooxy)-1,6-diazabicyclo[3.2.1]oct-2-yl]carbonyl}hydrazinecarboxamide], the IC50 was 0.1 to 1 µM at AmpC, under 0.1 µM on TEM-1, 0.1 to 1 µM against KPC-2 and 3 to 10 µM on OXA-2.
As for `CCN(CC)C(=O)NNC(=O)[C@@H]1CC[C@@H]2CN1C(=O)N2OS(=O)(=O)O` [Example 48, Sodium N,N-diethyl2-{[(2S,5R)-7-oxo-6-(sulfooxy)-1,6-diazabicyclo[3.2.1]oct-2-yl]carbonyl}hydrazinecarboxamide], the half-inhibitory concentration (IC50) is under 0.1 µM against AmpC, 0.1 to 1 µM against TEM-1, 0.1 to 1 µM against KPC-2 and 3 to 10 µM against OXA-2.
`O=C(NNC(=O)N1CCOCC1)[C@@H]1CC[C@@H]2CN1C(=O)N2OS(=O)(=O)O` [Example 50, Sodium (2S,5R)—N′-(morpholin-4-ylcarbonyl)-7-oxo-6-(sulfooxy)-1,6-diazabicyclo[3.2.1]octane-2-carbohydrazide]: the IC50 was under 0.1 µM against AmpC, 0.1 to 1 µM against TEM-1, 0.1 to 1 µM against KPC-2 and 3 to 10 µM against OXA-2.
As for `COC(=O)NNC(=O)[C@@H]1CC[C@@H]2CN1C(=O)N2OS(=O)(=O)O` [Example 51, Sodium methyl 2-{[(2S,5R)-7-oxo-6-(sulfooxy)-1,6-diazabicyclo[3.2.1]oct-2-yl]carbonyl}hydrazinecarboxylate], the IC50 is 0.1 to 1 µM against AmpC, under 0.1 µM against TEM-1, 0.1 to 1 µM at KPC-2 and 1 to 3 µM at OXA-2.
As to `CCOC(=O)NNC(=O)[C@@H]1CC[C@@H]2CN1C(=O)N2OS(=O)(=O)O` [Example 52, Sodium ethyl 2-{[(2S,5R)-7-oxo-6-(sulfooxy)-1,6-diazabicyclo[3.2.1]oct-2-yl]carbonyl}hydrazinecarboxylate], the IC50 is 0.1 to 1 µM at AmpC, under 0.1 µM at TEM-1, 0.1 to 1 µM on KPC-2 and 1 to 3 µM on OXA-2.
As for `CS(=O)(=O)NNC(=O)[C@@H]1CC[C@@H]2CN1C(=O)N2OS(=O)(=O)O` [Example 54, Sodium (2S,5R)—N′-(methylsulfonyl)-7-oxo-6-(sulfooxy)-1,6-diazabicyclo[3.2.1]octane-2-carbohydrazide], the IC50 at AmpC is under 0.1 µM; against TEM-1, under 0.1 µM; against KPC-2 it was 0.1 to 1 µM; at OXA-2 it was 0.1 to 1 µM.
On to `CONC(=O)[C@@H]1CC[C@@H]2CN1C(=O)N2OS(=O)(=O)O` [Example 56, Sodium (2S,5R)—N-methoxy-7-oxo-6-(sulfooxy)-1,6-diazabicyclo[3.2.1]octane-2-carboxamide], for which the IC50 against AmpC was 0.1 to 1 µM; against TEM-1, under 0.1 µM; against KPC-2 it was 0.1 to 1 µM; against OXA-2 it was 1 to 3 µM.
For the molecule `O=C(NOCC1CCC1)[C@@H]1CC[C@@H]2CN1C(=O)N2OS(=O)(=O)O` [Example 58, Sodium (2S,5R)—N-(cyclobutylmethoxy)-7-oxo-6-(sulfooxy)-1,6-diazabicyclo[3.2.1]octane-2-carboxamide], the IC50 against AmpC is under 0.1 µM; on TEM-1, under 0.1 µM; on KPC-2, under 0.1 µM; against OXA-2, 0.1 to 1 µM.
As for `CC(C)(C)OC(=O)NCCONC(=O)[C@@H]1CC[C@@H]2CN1C(=O)N2OS(=O)(=O)O` [Example 60, Sodium tert-butyl {2-[({[(2S,5R)-7-oxo-6-(sulfooxy)-1,6-diazabicyclo[3.2.1]oct-2-yl]carbonyl}amino)oxy]ethyl}carbamate], the IC50 against AmpC is 0.1 to 1 µM; at TEM-1, under 0.1 µM; on KPC-2 it was 0.1 to 1 µM; on OXA-2 it was 0.1 to 1 µM.
For `CNCCONC(=O)[C@@H]1CC[C@@H]2CN1C(=O)N2OS(=O)(=O)O` [Example 61, (2S,5R)—N-[2-(Methylamino)ethoxy]-7-oxo-6-(sulfooxy)-1,6-diazabicyclo[3.2.1]octane-2-carboxamide], the IC50 against AmpC was 0.1 to 1 µM; against TEM-1 it was under 0.1 µM; against KPC-2, 1 to 3 µM; at OXA-2 (setting [1]) it was 1 to 3 µM.
With `CCNCCONC(=O)[C@@H]1CC[C@@H]2CN1C(=O)N2OS(=O)(=O)O` [Example 62, (2S,5R)—N-[2-(Ethylamino)ethoxy]-7-oxo-6-(sulfooxy)-1,6-diazabicyclo[3.2.1]octane-2-carboxamide], the half-inhibitory concentration (IC50) against AmpC is 0.1 to 1 µM; at TEM-1 it was under 0.1 µM; against KPC-2 it was 0.1 to 1 µM; on OXA-2 (setting [1]), 1 to 3 µM.
For the molecule `CCCNCCONC(=O)[C@@H]1CC[C@@H]2CN1C(=O)N2OS(=O)(=O)O` [Example 63, (2S,5R)-7-Oxo-N-[2-(propylamino)ethoxy]-6-(sulfooxy)-1,6-diazabicyclo[3.2.1]octane-2-carboxamide], the IC50 against AmpC is 0.1 to 1 µM; against TEM-1, under 0.1 µM; at KPC-2, 0.1 to 1 µM; on OXA-2 (setting [1]), 1 to 3 µM.
For `CC(C)NCCONC(=O)[C@@H]1CC[C@@H]2CN1C(=O)N2OS(=O)(=O)O` [Example 64, (2S,5R)-7-Oxo-N-[2-(propan-2-ylamino)ethoxy]-6-(sulfooxy)-1,6-diazabicyclo[3.2.1]octane-2-carboxamide], the IC50 against AmpC was 0.1 to 1 µM; at TEM-1 it was under 0.1 µM; against KPC-2 it was 0.1 to 1 µM; at OXA-2 (setting [1]), 1 to 3 µM.
`CN(C)CCONC(=O)[C@@H]1CC[C@@H]2CN1C(=O)N2OS(=O)(=O)O` [Example 65, (2S,5R)—N-[2-(Dimethylamino)ethoxy]-7-oxo-6-(sulfooxy)-1,6-diazabicyclo[3.2.1]octane-2-carboxamide]: the IC50 against AmpC is 0.1 to 1 µM; against TEM-1, 0.1 to 1 µM; against KPC-2, 1 to 3 µM; at OXA-2 (setting [1]), 1 to 3 µM.
On to `C[C@H](N)CONC(=O)[C@@H]1CC[C@@H]2CN1C(=O)N2OS(=O)(=O)O` [Example 66, (2S,5R)—N-{[(2S)-2-Aminopropyl]oxy}-7-oxo-6-(sulfooxy)-1,6-diazabicyclo[3.2.1]octane-2-carboxamide], for which the IC50 was 0.1 to 1 µM against AmpC, under 0.1 µM at TEM-1, 1 to 3 µM against KPC-2 and 1 to 3 µM at OXA-2 (setting [1]).
For `C[C@@H](N)CONC(=O)[C@@H]1CC[C@@H]2CN1C(=O)N2OS(=O)(=O)O` [Example 67, (2S,5R)—N-{[(2R)-2-Aminopropyl]oxy}-7-oxo-6-(sulfooxy)-1,6-diazabicyclo[3.2.1]octane-2-carboxamide], the IC50 was 0.1 to 1 µM against AmpC, under 0.1 µM on TEM-1, 1 to 3 µM at KPC-2 and 1 to 3 µM on OXA-2 (setting [1]).
`C[C@@H](CN)ONC(=O)[C@@H]1CC[C@@H]2CN1C(=O)N2OS(=O)(=O)O` [Example 68, (2S,5R)—N-{[(2S)-1-Aminopropan-2-yl]oxy}-7-oxo-6-(sulfooxy)-1,6-diazabicyclo[3.2.1]octane-2-carboxamide]: the IC50 on AmpC was under 0.1 µM; against TEM-1 it was under 0.1 µM; against KPC-2, 0.1 to 1 µM; at OXA-2 (setting [1]), 1 to 3 µM.
As for `NCCCONC(=O)[C@@H]1CC[C@@H]2CN1C(=O)N2OS(=O)(=O)O` [Example 69, (2S,5R)—N-(3-Aminopropoxy)-7-oxo-6-(sulfooxy)-1,6-diazabicyclo[3.2.1]octane-2-carboxamide], the IC50 is 0.1 to 1 µM against AmpC, under 0.1 µM against TEM-1, 1 to 3 µM on KPC-2 and 0.1 to 1 µM at OXA-2 (setting [1]).
With `O=C([C@@H]1CC[C@@H]2CN1C(=O)N2OS(=O)(=O)O)N1CCCO1` [Example 70, Sodium (2S,5R)-2-(1,2-oxazolidin-2-ylcarbonyl)-6-(sulfooxy)-1,6-diazabicyclo[3.2.1]octane-7-one], the IC50 is 0.1 to 1 µM at AmpC, under 0.1 µM against TEM-1, 0.1 to 1 µM at KPC-2 and 0.1 to 1 µM against OXA-2.
On to `O=C(NOCCN1CCOCC1)[C@@H]1CC[C@@H]2CN1C(=O)N2OS(=O)(=O)O` [Example 72, Sodium (2S,5R)—N-[2-(morpholin-4-yl)ethoxy]-7-oxo-6-(sulfooxy)-1,6-diazabicyclo[3.2.1]octane-2-carboxamide], for which the IC50 on AmpC is under 0.1 µM; against TEM-1 it was under 0.1 µM; on KPC-2 it was 0.1 to 1 µM; on OXA-2, 0.1 to 1 µM.
